Columns and labels:
Assay type in all cases: functional
Settings in all cases: read-out: DIZ
Escherichia coli = assay: Antimicrobial activity against Escherichia coli DSM 8579 assessed as growth inhibition at 7 ug per disc after 24 to 48 hrs (reference value: 0 millimeter)
Bacillus cereus [1] = assay: Antimicrobial activity against Bacillus cereus DSM 4384 assessed as growth inhibition at 7 ug per disc after 24 to 48 hrs (reference value: 0 millimeter)
Bacillus cereus [2] = assay: Antimicrobial activity against Bacillus cereus DSM 4313 assessed as growth inhibition at 7 ug per disc after 24 to 48 hrs (reference value: 0 millimeter)
Pseudomonas aeruginosa = assay: Antimicrobial activity against Pseudomonas aeruginosa DSM 50071 assessed as growth inhibition at 7 ug per disc after 24 to 48 hrs (reference value: 0 millimeter)
Staphylococcus aureus = assay: Antimicrobial activity against Staphylococcus aureus DSM 25923 assessed as growth inhibition at 7 ug per disc after 24 to 48 hrs (reference value: 0 millimeter)

Question: Which results are given for `CN(C)[C@@H]1C(O)=C(C(N)=O)C(=O)[C@@]2(O)C(O)=C3C(=O)c4c(O)cccc4[C@@](C)(O)[C@H]3C[C@@H]12` [TETRACYCLINE]?
Answer: zone of inhibition at 7 µg/disc (Escherichia coli): 12.7 mm; zone of inhibition at 7 µg/disc (Bacillus cereus [1]): 8.67 mm; zone of inhibition at 7 µg/disc (Bacillus cereus [2]): 10.3 mm; zone of inhibition at 7 µg/disc (Pseudomonas aeruginosa): 9.67 mm; zone of inhibition at 7 µg/disc (Staphylococcus aureus): 11.3 mm
